Patent US20120016119A1, “NOVEL PYRROLO(2,3-d)PYRIMIDINE COMPOUND” (priority 2009, published 2012)

Key:
[1] = target: T1, human GPR119 (Homo sapiens, UniProt Q8TDV5); experiment: GPR119 agonistic activity: cAMP production in human GPR119-expressed CHO cells (HTRF cAMP kit); format: cell-based; conditions: human GPR119-expressed CHO cells (L8-18), 37° C. for 30 minutes, 500 μM IBMX
T1 construct: expressed in transfected cells; host or cells: CHO cells (LM-3 mock cells carrying luciferase reporter pLG3-CRE6-CRE-VIP); resulting line L8-18
T1 sequence (Q8TDV5 1-335): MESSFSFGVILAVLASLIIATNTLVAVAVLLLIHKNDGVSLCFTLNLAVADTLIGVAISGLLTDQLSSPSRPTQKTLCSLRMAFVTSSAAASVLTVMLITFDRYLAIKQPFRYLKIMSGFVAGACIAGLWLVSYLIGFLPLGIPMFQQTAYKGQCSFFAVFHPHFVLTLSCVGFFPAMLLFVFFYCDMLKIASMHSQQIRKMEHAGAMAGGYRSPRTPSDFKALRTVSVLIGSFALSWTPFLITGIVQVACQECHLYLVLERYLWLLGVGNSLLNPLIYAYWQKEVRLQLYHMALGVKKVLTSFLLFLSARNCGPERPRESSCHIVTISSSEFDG
Description: The present experiment is directed to evaluate GPR119 agonistic activity (in vitro) of test compounds by adding the compounds to human GPR119-expressed CHO cells to determine cAMP production of the cells.
Human GPR119-expressed CHO cells (L8-18) were prepared by introducing an expression vector pMSF1-GPR119 (Geneticin-resistance) carrying human GPR119 genes into CHO cells (LM-3; Mock cells) wherein lusiferase expression vector pLG3-CRE6-CRE-VIP (Hygromycin B-resistance) were introduced according to the known method (The Journal of Biological Chemistry Vol. 274 (34), pp. 23940-23947).
Cryopreserved L8-18 cells were melted, and then suspended into 9-fold amounts of assay buffer and centrifuged (1000 rpm, 5 minutes) at room temperature. The supernatant was removed, and then the precipitated cells were resuspended into assay buffer (4 mL). Thereto was added assay buffer which contained IBMX (manufactured by Sigma, #17018-1G), and 7.5×10^4 cells/mL of cell suspension was prepared. The cell suspension was let stand at room temperature for 15 minutes, and then to each well of 96 half well white plate (manufactured by Corning Incorporated, #3693) were added the cell suspension (20 μL) and a solution of a test compound or AR231453 (5 μL; a total of 25 (final concentration: 1500 cells/well, 500 μM IBMX, 1% dimethylsulfoxide). The mixture was incubated at 37° C. for 30 minutes, and then to each well were added a 20-fold diluted solution (each 12.5 μL/well) of cAMP-d2 and Anti cAMP-Cryptate of HTRF cAMP kit (manufactured by Cisbio, #62AM4PEC). The mixture was stirred, and then was let stand for 1 hour under light shielding. A fluorescence intensity was measured by time-resolved fluorescence mode (Ex: 320 nm, Em: 665 nm, 620 nm) of Microplate Reader (ARVO or SpectraMax M5e). In ARVO, Ratios [Ratio=(665 nm/620 nm)×10^4)] of cAMP-d2 to Anti cAMP-Cryptate were calculated from the resulting fluorescence intensity, and cAMP concentrations of each well were calculated from cAMP standard curve prepared by the Ratios and GraphPad Prism. In SpectraMax M5e, cAMP concentrations of each well were calculated on the basis of a standard curve prepared by the resulting fluorescence intensity and Softmax Pro.
EC50 of test compounds were calculated by GraphPad Prism.

[2] = tested on: C57BL/6N male mice; experiment: Inhibitory effect on increased blood glucose after oral glucose load in fasted mice; format: in vivo; conditions: one hour before glucose load (3 g/kg, p.o.), C57BL/6N male mice fasted 21 hours
Description: C57BL/6N male mice was fasted for 21 hours, and then a stratified randomization allocation was carried out by EXSUS Ver7.6 NP (Arm Systex Co., Ltd.) based on body weights (n=8). Vehicle (solvent: 0.1% Tween 80/0.5% hydroxypropyl methylcellulose) (control group) or a suspended solution of a test compound in the vehicle (test compound group) was orally administered to the mice, and a glucose load (3 g/kg, p.o.) was carried out one hour after administration of a test compound. Blood samplings from the test mice were carried out at each time point of just before administration of drug (−60 min), immediately before glucose load (0 min), 30 minutes (30 min), 60 minutes (60 min) and 120 minutes (120 min) after glucose load. Blood glucose levels at each time point were measured by glucose CII-Test Wako (manufactured by Wako Pure Chemical Industries, Ltd.), AUC (0-120 min) was calculated in each administration group on the basis of the measured value, and evaluated by time-dependent variance analysis and Student's t-Test using EXSUS Ver7.6NP (Arm Systex Co., Ltd.).
An inhibitory effect on increased blood glucose of each test compound (A ratio value of AUC (0-120 min) of the test compound group in case that AUC (0-120 min) of the control group is 100) is shown in the following Table 36.

EC50 [1] [nM]	Structure (SMILES)	Inhibitory Effect on Increased Blood Glucose (ratio value of AUC (0-120 min) of test compound group, control group = 100) ([2]; 10 mg/kg orally)	Inhibitory Effect on Increased Blood Glucose (ratio value of AUC (0-120 min) of test compound group, control group = 100) ([2]; 3 mg/kg orally)
< 1000	CCc1cnc(N2CCC(n3cc(F)c4c(Nc5ccc(C(=O)N(C)C)cc5Cl)ncnc43)CC2)nc1 [Example Compound 29]	88	
< 1000	CC(C)Oc1cnc(N2CCC(n3cc(F)c4c(Nc5ccc(C(=O)N(C)CCO)cc5F)ncnc43)CC2)nc1 [Example Compound 153]		84
